In PubChem BioAssay (NCI):
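The compound was tested at five concentrations on cells cultured in 96-well plates, with a 48-hour exposure period. The concentration for 50% growth inhibition is given as GI50. TGI is the concentration that stops growth completely.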

Tests used:
Experiment in all cases: DTP human tumour cell line panel, 48 h
[1] = test system: ACHN renal
[2] = test system: HS 578T breast
[3] = test system: KM12 colon
[4] = test system: NCI-H226 lung
[5] = test system: RXF 393 renal
[6] = test system: SK-MEL-2 melanoma
[7] = test system: SR leukemia
[8] = test system: UO-31 renal
[9] = test system: OVCAR-4 ovarian
[10] = test system: PC-3 prostate

Row | SMILES | GI50 [1] [µM] | TGI [1] [µM] | GI50 [2] [µM] | TGI [2] [µM] | GI50 [3] [µM] | TGI [3] [µM] | GI50 [4] [µM] | TGI [4] [µM] | GI50 [5] [µM] | TGI [5] [µM] | GI50 [6] [µM] | TGI [6] [µM] | GI50 [7] [µM] | TGI [7] [µM] | GI50 [8] [µM] | TGI [8] [µM] | TGI [9] [µM] | GI50 [9] [µM] | GI50 [10] [µM] | TGI [10] [µM]
1 | Cc1nn(-c2ccc(Cl)cc2)c2nc3c(nc12)C(=O)c1ccccc1-3 | > 100 | > 100 | 15.7 | > 100 | > 100 | > 100 | 25.6 | > 100 | > 100 | > 100 | > 100 | > 100 | > 100 | > 100 | > 100 | > 100 | – | – | – | –
2 | COc1ccc(NC(=O)/C(Cc2cc(=O)oc3cc(O)ccc23)=N\NC(C)(C)C)c(OC)c1 | – | > 100 | – | – | – | > 100 | – | > 100 | – | – | – | > 100 | – | > 100 | – | > 100 | > 100 | – | – | –
3 | C=C(C)[C@@H]1CC[C@]2(C)[C@H](CC=C3[C@@H]4CC(C)(C)CC[C@]4(C(N)=O)CC[C@]32C)[C@@]1(C)CCC#N | 3.01 | 51.2 | 3.28 | 54.6 | 3.1 | 14.8 | 2.94 | 9.41 | 2.34 | 5.11 | 5.28 | > 100 | – | – | 2.55 | 7.52 | > 100 | 2.56 | 2.37 | > 100
4 | Cc1[nH]c2ccccc2c1C(=O)/C=C/c1ccccc1O | – | > 100 | – | – | – | > 100 | – | – | – | > 100 | – | > 100 | – | > 100 | – | > 100 | > 100 | – | – | –
5 | COc1cc2c3c(n(C)c(=O)c2cc1OC)-c1cc2c(cc1/C3=C\CN)OCO2 | 0.037 | 0.625 | 34.9 | > 100 | 1.18 | 12.1 | 0.515 | 15.2 | 3.17 | > 45.8 | 24.1 | > 100 | – | – | 0.621 | > 41.1 | > 27.2 | 5.55 | 7.03 | > 100
6 | O=C(/C=C/c1cccc2ccccc12)c1ccccc1Cl | – | 31.3 | – | – | – | 21.3 | – | > 100 | – | 32.4 | – | 34.7 | – | 11.3 | – | 28 | 28.5 | – | – | –
7 | O=C(CSc1nc2ccccc2nc1-c1ccccc1)Nc1ccc(F)cc1 | 41.9 | > 100 | 28.1 | 63.8 | 44.8 | > 100 | > 100 | > 100 | 18.6 | 68.5 | 73.5 | > 100 | – | – | 45.7 | > 100 | 15.7 | 1.96 | 38.9 | > 100
8 | CC1CN(C(=O)CN2CCC(CCCCN(C)C)CC2)c2ccccc2NC1=O (stereo not drawn) | – | > 100 | – | – | – | – | – | > 100 | – | – | – | – | – | > 100 | – | > 100 | > 100 | – | – | –
9 | COC1(OC)C(N(C)C)=C(Cl)C(=O)/C1=C/C=O | – | > 100 | – | – | – | – | – | > 100 | – | – | – | – | – | > 100 | – | > 100 | > 100 | – | – | –
10 | [Cl][Hg][c]1cc[c]([Hg][Cl])o1 | 1.85 | 3.39 | 3.71 | > 100 | 10.6 | 24.4 | 21.8 | 51.8 | 1.41 | 2.92 | 2.56 | 11.3 | – | – | 1.98 | 3.96 | 4.24 | 1.63 | 6.83 | 28.5
11 | O=C(Nc1ccncc1)C(=O)c1cn(S(=O)(=O)c2ccc(F)cc2)c2ccccc12 | 5.76 | > 100 | 3.65 | 82.1 | 1.49 | > 100 | 9.15 | > 100 | 2.6 | 8.72 | 4.74 | 52.9 | – | – | 2.64 | 48.3 | > 100 | 23.1 | 4.45 | > 100
12 | CCOc1ccc(NC(=O)C(=O)CC(=O)c2c(C)n([O-])c3ccccc3[n+]2=O)cc1 | – | > 100 | – | – | – | > 100 | – | > 100 | – | > 100 | – | > 100 | – | > 100 | – | > 100 | > 100 | – | – | –
13 | CC(=O)c1sc(Nc2nnc(-c3ccc(-c4nnc(Nc5nc(C)c(C(C)=O)s5)o4)cc3)o2)nc1C | – | > 100 | – | – | – | > 10 | – | > 100 | – | > 100 | – | – | – | > 100 | – | > 10 | > 100 | – | – | –
14 | O=C1/C(=C/c2cccc(Cl)c2Cl)N=C(c2ccccc2)N1C1CC1 | 16.7 | > 50 | 16.6 | 39.5 | 11.9 | 34.4 | 9.54 | 23.2 | 23.9 | > 50 | 18.5 | > 50 | 21.5 | > 50 | 28.5 | > 50 | – | – | 8.85 | 17.2
15 | CCOc1ccc(NC(=O)CC#N)cc1 | – | > 100 | – | – | – | > 100 | – | > 100 | – | > 100 | – | > 100 | – | > 100 | – | > 100 | > 100 | – | – | –
16 | CN(C)CC1CCCC/C1=N/OC(=O)c1ccc(Cl)cc1 (stereo not drawn) | – | > 100 | – | – | – | > 100 | – | > 100 | – | > 100 | – | > 100 | – | > 100 | – | > 100 | > 100 | – | – | –
17 | Cc1ccc(NC(=O)CCc2cc(C(C)(C)C)nc(=S)[nH]2)cc1C | – | > 100 | – | – | – | > 100 | – | > 100 | – | > 100 | – | > 100 | – | > 100 | – | > 100 | – | – | – | –
18 | O=C1C=CC(=O)c2cc3cc(CBr)ccc3cc21 | 1.82 | 3.71 | 28.7 | > 93.2 | 17.5 | 38.4 | 27.4 | 71.2 | 11 | 27.9 | 33.3 | > 83.5 | 0.0371 | 0.0923 | 3.59 | > 100 | – | – | 3.85 | 8.9
19 | CCN1CCC(O)(c2ccc(OC)cc2)C(C(=O)c2ccc(OC)cc2)C1 (stereo not drawn) | – | 30.1 | – | – | – | 42.1 | – | > 100 | – | – | – | 38.1 | – | 67.1 | – | 35.3 | 32.4 | – | – | –
20 | C1CN2CCN3CCN4CCN1[P+]243 | – | > 100 | – | – | – | > 100 | – | > 100 | – | > 100 | – | > 100 | – | > 100 | – | > 100 | > 100 | – | – | –
21 | O=C1/C(=C/c2ccc(Cl)cc2)CCC1CCN1CCOCC1 (stereo not drawn) | – | > 100 | – | – | – | > 100 | – | > 100 | – | > 100 | – | > 100 | – | > 100 | – | > 100 | > 100 | – | – | –
22 | CCOC(=O)Nc1ccc(C)c(NC(=O)OCC)c1 | – | > 100 | – | > 100 | – | > 100 | – | > 100 | – | > 100 | – | > 100 | – | > 100 | – | > 100 | – | – | – | > 100
23 | CN1CCOC(c2ccccc2)O1 (stereo not drawn) | – | > 100 | – | – | – | > 100 | – | > 100 | – | > 100 | – | > 100 | – | > 100 | – | > 100 | > 100 | – | – | –
24 | COc1ccc(C(=O)/C=C/c2cc(-c3cc(OC)c(OC)c(OC)c3)n[nH]2)cc1OC | 1.66 | 3.09 | 2.57 | 8.2 | 1.07 | 2.41 | – | – | 1.35 | 2.66 | 1.85 | 3.51 | 0.278 | > 100 | 1.28 | 2.57 | 16.6 | 2.69 | 1.36 | 2.8
25 | CCC[CH2][Sn]([Cl])([CH2]CCC)[CH2]CCC | 0.144 | 0.276 | – | – | 0.123 | 0.264 | – | – | – | – | 0.112 | 0.24 | 0.066 | 0.596 | 0.16 | 0.312 | 0.242 | 0.0998 | – | –
26 | S=c1sc2c(Cl)nc(Cl)nc2n1-c1ccccc1 | – | > 100 | – | – | – | > 100 | – | > 100 | – | 50.6 | – | > 100 | – | 55.1 | – | > 100 | > 100 | – | – | –
27 | CCn1c2ccccc2c2cc(NC(=O)Nc3ccc([N+](=O)[O-])cc3C)ccc21 | 3.56 | 14.9 | 2.2 | 8 | 2.69 | 16.8 | 4.4 | 29.2 | 1.36 | 6.27 | 3.33 | 15.4 | – | – | 2.68 | 17.1 | 85 | 5.48 | 2.73 | 10.8
28 | CCCNC(=S)NNC(=O)CSc1nc(-c2ccccc2)c(-c2ccccc2)[nH]1 | – | > 100 | – | – | – | > 100 | – | > 100 | – | – | – | > 100 | – | 93.4 | – | > 100 | > 100 | – | – | –
29 | O=C1Nc2ccccc2/C1=N\[O-].O=C1Nc2ccccc2/C1=N\[O-].[Cu+2] | > 100 | > 100 | > 100 | > 100 | > 100 | > 100 | > 100 | > 100 | > 100 | > 100 | > 100 | > 100 | – | – | > 100 | > 100 | > 100 | > 100 | > 100 | > 100
